Experimental data reported in paper PMC12091851, “Replacing a Cereblon Ligand by a DDB1 and CUL4 Associated Factor 11 (DCAF11) Recruiter Converts a Selective Histone Deacetylase 6 PROTAC into a Pan‐Degrader” (Chemmedchem, 2025).

How the values were obtained:
HDAC = conditions: cited from earlier work
MM.1S cells = assay: Cell cycle analysis by PI staining and flow cytometry; assay type: cell-based, human; conditions: 10 μM, 48 h
Procedure: GraphPad Prism (GraphPad Software). […]
Biotech), resuspended in 1 mL EtOH/D PBS (7/3 v/v), and fixed for 30 min at 4 °C. The samples were rehydrated with DPBS and treated with 5 µg /mL RNAse ( Catalog# EN0531 , ThermoFisher Scientific Inc.) for 15 min at room temperature. The staining was performed with 3 µM propidium iodide (in DPBS) for 15 min at room temperature and analyzed by flow cytometry ( Guava easyCyteTM, Luminex, […]
Lakes, NJ, USA), using the Watson Pragmatic algorithm.[6] GraphPad Prism (GraphPad Software) was used for normalization, statistical analysis, and bar graph creation. Significance testing was performed with a one-way analysis of variance (ANOVA). Dunnett’s post-hoc test was employed to obtain […]
Final DMSO concentration was 0.1%.
Staining was performed with
Fluorescence was measured by flow cytometry (Guava® easyCyteTM, Luminex, Austin, Texas). GraphPad Prism (GraphPad Software) was used for normalization, statistical analysis, and bar graph creation. Significance testing was performed with a one-way analysis of variance (ANOVA).
Subsequently, cells were harvested and […]
After 30 minutes of incubation at […]
Dunnett’s post-hoc test was employed

MDA-MB-231 cells = assay: Clonogenic growth assay; assay type: cell-based, human; conditions: 10 μM for 48 h, nine days of growth
Procedure: Figure 9 Clonogenic growth assay of DCAF11‐recruiting PROTACs. MDA‐MB‐231 cells were treated with 10 μM of the respective compound or vehicle (DMSO) for 48 hours. (A) Representative images of crystal violet stained colonies after nine days of growth. (B) Quantification of counted colonies, presented as mean ± standard deviation of three biological replicates, each performed in triplicates. Significance of quantification compared to vehicle: ns=p≥0.05; **=p≤0.01 and ***=p≤0.001. […]
Subsequently, cells were harvested and
plated in 6-well plates at a density of 750 cells per well in triplicates. The cell culture medium was
changed after five days. Nine days after plating, the colonies were carefully washed with 500 µL DPBS
and stained with 500 µL crystal violet solution (0.5% in methanol). After 30 minutes of incubation at
room temperature, the wells were gently rinsed with deionized water. After counting the formed
colonies, GraphPad Prism (GraphPad Software) was used for bar graph creation. Significance testing
was performed with a one-way analysis of variance (ANOVA). Dunnett’s post-hoc test was employed
to obtain significance levels of each mean compared to a reference mean value.

[1] = Aqueous stability assay in DPBS buffer (HPLC); assay type: physicochemical; conditions: DPBS pH 7.4, 10% DMSO, room temperature, 72 hours
Procedure: and A6. Compounds were diluted in DPBS buffer (pH = 7.4; final DMSO concentration: 10%) and the remaining compound content was analyzed by HPLC. The peak area at 0 h was used for normalization.
Mean ± standard deviation of n = 2 replicates.
Figure S4. Analysis of time dependent degradation by 1j of HDAC1 (A) and HDAC6 (B) by Simple Western™ immunoassay analysis of MM.1S cell lysates. MM.1S cells were treated with 1j (10 µM) or vehicle (DMSO) for the indicated time period. Quantification of protein levels presented as mean ± standard deviation of n = 3 biological replicates. Si gnificance compared to vehicle: * = p≤0.05 , […]
2.5. Aqueous Stability Assay
For stability testing in aqueous solution, a 10-fold concentrated DMSO solution of the respective compounds was diluted in DPBS to generate a 10 µM concentration (final DMSO content of 10%).
Samples of the aqueous solutions were taken after 0, 24, 48, and 72 h at room temperature and the amounts of the parental compound and potential fragments were monitored by HPLC gradient A (see 3.1 General Information). The peak area of the 0 h sample was used for normalization. All compounds were tested in duplicates and GraphPad Prim was used for evaluation and data visualization.
The cell lysis was performed as descripted in 3.2. Simple Western Immunoassay. […]
Afterwards, proteins were transferred with the Trans -Blot Turbo Transfer System (Catalog# 1704150, Bio-Rad) to Immobilon-FL PVDF membranes (Catalog# IPFL00005, Mill ipore Merck, Burlington, MA, USA) at 1.0 A for 30 min and treated with 5% milk-powder solution for 1 h at room temperature under slight agitation. […] The ChemiDoc XRS+ System (Catalog# 1708265 , Bio-Rad) was used for detection and Image Lab Software 6.1 (Bio-Rad) for quantification. […]
In vitro inhibitory activities against HDAC1, 2 , and 6 were measured using a previously published protocol.[3] In vitro inhibitory activities against HDAC4 were measured using a previously published protocol with slight modifications. […]

Compound | degraded HDAC isoforms (HDAC) | effect on cell cycle phases (MM.1S cells) | reduction of colonies (clonogenic growth) (MDA-MB-231 cells) | decomposition / reduction in content in DPBS buffer [1]
O=C(CCCCCCC(=O)N/N=C/c1ccc(OCCOCCOCCn2cc(CNc3cccc4c3C(=O)N(C3CCC(=O)NC3=O)C4=O)nn2)cc1)NO (centres unmarked) [I] | only HDAC6 was degraded | – | – | –
Cc1ncsc1-c1ccc([C@@H](C)NC(=O)[C@H]2C[C@H](O)CN2C(=O)[C@H](NC(=O)CCOCCOCCN(CCc2c[nH]c3ccccc23)Cc2ccc(/C=C/C(=O)NO)cc2)C(C)(C)C)cc1 [V] | degraded HDAC3 and 8 | – | – | –
O=C(CCCCCCC(=O)Nc1ccccc1)NO [Vorinostat, vorinostat, reference compound] | – | stronger effects on the different phases of the cell cycle | less pronounced and not significant | remained intact
